System: 997726-040-R-J2-PDC tumor spheroids, viability
Experiment: Anticancer human tumor 997726-040-R-J2-PDC patient-derived squamous cell lung carcinoma cell line growth inhibition [PI3K]
Settings: spheroids with HUVEC and MSC; for viability, T/C: stronger effect = lower value
How it was run: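 Stroma-containing spheroids: tumor line, pooled-donor HUVEC, hMSC. Treatments: targeted agents with PI3K inhibitors. Dosing: clinically relevant, half-log spacing, 10 microM ceiling without known Cmax. Read-out: cell viability.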

[1] = curve of first compound, second compound 0.0316 µM
[2] = curve of first compound, second compound 0.1 µM
[3] = curve of first compound, second compound 0.316 µM
[4] = curve of first compound, second compound 1 µM
[5] = second compound 0.0316 µM, first compound 0.0316 µM
[6] = second compound 0.0316 µM, first compound 0.1 µM
[7] = second compound 0.0316 µM, first compound 0.316 µM
[8] = second compound 0.0316 µM, first compound 1 µM
[9] = second compound 0.0316 µM, first compound 3.16 µM
[10] = second compound 0.0316 µM, first compound 10 µM
[11] = second compound 0.1 µM, first compound 0.0316 µM
[12] = second compound 0.1 µM, first compound 0.1 µM
[13] = second compound 0.1 µM, first compound 0.316 µM
[14] = second compound 0.1 µM, first compound 1 µM
[15] = second compound 0.1 µM, first compound 3.16 µM
[16] = second compound 0.1 µM, first compound 10 µM
[17] = second compound 0.316 µM, first compound 0.0316 µM
[18] = second compound 0.316 µM, first compound 0.1 µM
[19] = second compound 0.316 µM, first compound 0.316 µM
[20] = second compound 0.316 µM, first compound 1 µM
[21] = second compound 0.316 µM, first compound 3.16 µM
[22] = second compound 0.316 µM, first compound 10 µM
[23] = second compound 1 µM, first compound 0.0316 µM
[24] = second compound 1 µM, first compound 0.1 µM
[25] = second compound 1 µM, first compound 0.316 µM
[26] = second compound 1 µM, first compound 1 µM
[27] = second compound 1 µM, first compound 3.16 µM
[28] = second compound 1 µM, first compound 10 µM
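Note: spheroids exposed to compounds for seven days before readout.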

Compound: C=CC(=O)N1CCN(c2nc(=O)n(-c3c(C)ccnc3C(C)C)c3nc(-c4c(O)cccc4F)c(F)cc23)C(C)C1 (stereo unspecified) + CC(Nc1ccc2c(c1)OCCn1cc(N3C(=O)OCC3C(F)F)nc1-2)C(N)=O
- IC50 (curve of first compound, second compound 0.00316 µM): > 10 µM
- IC50 (curve of first compound, second compound 0.01 µM): > 10 µM
- IC50 [1]: > 10 µM
- IC50 [2]: < 0.0316 µM
- IC50 [3]: < 0.0316 µM
- IC50 [4]: < 0.0316 µM
- viability, T/C (second compound 0.00316 µM, first compound 0.0316 µM): 88.3%
- viability, T/C (second compound 0.00316 µM, first compound 0.1 µM): 93.5%
- viability, T/C (second compound 0.00316 µM, first compound 0.316 µM): 96.6%
- viability, T/C (second compound 0.00316 µM, first compound 1 µM): 103%
- viability, T/C (second compound 0.00316 µM, first compound 3.16 µM): 119%
- viability, T/C (second compound 0.00316 µM, first compound 10 µM): 114%
- viability, T/C (second compound 0.01 µM, first compound 0.0316 µM): 87%
- viability, T/C (second compound 0.01 µM, first compound 0.1 µM): 81.7%
- viability, T/C (second compound 0.01 µM, first compound 0.316 µM): 88.5%
- viability, T/C (second compound 0.01 µM, first compound 1 µM): 81.7%
- viability, T/C (second compound 0.01 µM, first compound 3.16 µM): 106%
- viability, T/C (second compound 0.01 µM, first compound 10 µM): 98.8%
- viability, T/C [5]: 60.2%
- viability, T/C [6]: 63.4%
- viability, T/C [7]: 67.5%
- viability, T/C [8]: 67.2%
- viability, T/C [9]: 72.1%
- viability, T/C [10]: 82.3%
- viability, T/C [11]: 43.7%
- viability, T/C [12]: 47.3%
- viability, T/C [13]: 43.3%
- viability, T/C [14]: 49.1%
- viability, T/C [15]: 54.4%
- viability, T/C [16]: 48.4%
- viability, T/C [17]: 31.6%
- viability, T/C [18]: 32.8%
- viability, T/C [19]: 33.8%
- viability, T/C [20]: 33.4%
- viability, T/C [21]: 37.7%
- viability, T/C [22]: 33.5%
- viability, T/C [23]: 26.7%
- viability, T/C [24]: 27.5%
- viability, T/C [25]: 29.5%
- viability, T/C [26]: 26.7%
- viability, T/C [27]: 30%
- viability, T/C [28]: 27.2%

Compound: CCCS(=O)(=O)Nc1ccc(F)c(C(=O)c2c[nH]c3ncc(-c4ccc(Cl)cc4)cc23)c1F + CC(Nc1ncnc2nc[nH]c12)c1cc2cccc(Cl)c2c(=O)n1-c1ccccc1
- IC50 [1]: 7.29 µM
- IC50 [2]: 7.37 µM
- IC50 [3]: 7.39 µM
- IC50 [4]: 7.17 µM
- IC50 (curve of first compound, second compound 3.16 µM): 5.94 µM
- IC50 (curve of first compound, second compound 10 µM): 4.43 µM
- viability, T/C [5]: 104%
- viability, T/C [6]: 103%
- viability, T/C [7]: 128%
- viability, T/C [8]: 137%
- viability, T/C [9]: 162%
- viability, T/C [10]: 20.9%
- viability, T/C [11]: 107%
- viability, T/C [12]: 116%
- viability, T/C [13]: 110%
- viability, T/C [14]: 121%
- viability, T/C [15]: 166%
- viability, T/C [16]: 23.1%
- viability, T/C [17]: 103%
- viability, T/C [18]: 102%
- viability, T/C [19]: 114%
- viability, T/C [20]: 138%
- viability, T/C [21]: 169%
- viability, T/C [22]: 23.1%
- viability, T/C [23]: 102%
- viability, T/C [24]: 95.5%
- viability, T/C [25]: 109%
- viability, T/C [26]: 126%
- viability, T/C [27]: 146%
- viability, T/C [28]: 23%
- viability, T/C (second compound 3.16 µM, first compound 0.0316 µM): 71.1%
- viability, T/C (second compound 3.16 µM, first compound 0.1 µM): 80%
- viability, T/C (second compound 3.16 µM, first compound 0.316 µM): 83.9%
- viability, T/C (second compound 3.16 µM, first compound 1 µM): 85.4%
- viability, T/C (second compound 3.16 µM, first compound 3.16 µM): 107%
- viability, T/C (second compound 3.16 µM, first compound 10 µM): 20.5%
- viability, T/C (second compound 10 µM, first compound 0.0316 µM): 53.7%
- viability, T/C (second compound 10 µM, first compound 0.1 µM): 57.2%
- viability, T/C (second compound 10 µM, first compound 0.316 µM): 60.1%
- viability, T/C (second compound 10 µM, first compound 1 µM): 60.4%
- viability, T/C (second compound 10 µM, first compound 3.16 µM): 82.6%
- viability, T/C (second compound 10 µM, first compound 10 µM): 19.3%

Compound: Cn1nccc1Nc1nccc(-c2ccn(C(CO)c3ccc(Cl)c(F)c3)c(=O)c2)n1 (stereo unspecified)
- viability, T/C (compound 0.0316 µM): 93.2% [middle of 4 runs]
- viability, T/C (compound 0.1 µM): 78.7% [middle of 4 runs]
- viability, T/C (compound 0.316 µM): 73.9% [middle of 4 runs]
- viability, T/C (compound 1 µM): 61.8% [middle of 4 runs]
- viability, T/C (compound 3.16 µM): 61.6% [middle of 4 runs]
- viability, T/C (compound 10 µM): 58.1% [middle of 4 runs]
- IC50 (curve of compound): > 10 µM
